Reference: ChEMBL document CHEMBL4837255, “Overcoming the Pregnane X Receptor Liability: Rational Design to Eliminate PXR-Mediated CYP Induction” (ACS Med Chem Lett, 2021)
Values belong to the compound of their own block, whether it stands above or below them.

Experiments:
[1] = biological target: T1, PXR (NR1I2) (Homo sapiens, UniProt O75469); assay: Activation of full length human PXR expressed in human HepG2 cells co-expressing luciferase of CYP3A4 promoter transcription assessed as increase of luciferase activity at 50 uM preincubated for 24 hrs followed by addition of luciferase substrate and measured by hPXR Gene reporter assay relative to control; format: ADME, cell-based
T1 sequence (O75469 whole entry): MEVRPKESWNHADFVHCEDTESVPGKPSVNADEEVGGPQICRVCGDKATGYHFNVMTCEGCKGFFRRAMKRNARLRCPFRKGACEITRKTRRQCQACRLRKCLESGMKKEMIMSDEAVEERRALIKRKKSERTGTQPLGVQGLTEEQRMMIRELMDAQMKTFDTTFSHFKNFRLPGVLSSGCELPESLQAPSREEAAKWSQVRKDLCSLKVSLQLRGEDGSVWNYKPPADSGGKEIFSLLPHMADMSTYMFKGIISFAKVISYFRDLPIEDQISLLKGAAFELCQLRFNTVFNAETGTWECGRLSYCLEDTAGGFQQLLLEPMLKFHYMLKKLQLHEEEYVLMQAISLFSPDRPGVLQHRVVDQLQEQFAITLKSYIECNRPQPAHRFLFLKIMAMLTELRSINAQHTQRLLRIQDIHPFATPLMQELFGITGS

[2] = biological target: T2, Nuclear receptor subfamily 1 group I member 2 (Homo sapiens, UniProt O75469); assay: Activation of full length human PXR expressed in human HepG2 cells co-expressing luciferase of CYP3A4 promoter transcription assessed as increase of luciferase activity preincubated for 24 hrs followed by addition of luciferase substrate and measured by hPXR Gene reporter assay; format: ADME, cell-based
T2 sequence (O75469 whole entry): T1 sequence (O75469 whole entry)

[3] = Cmax in rat at 100 mg/kg/day measured after 10 days; format: ADME, organism-based; design: time 10 day, dose 100 mg/kg/day; conditions: in vivo
[4] = AUC (0 to t) in rat at 100 mg/kg/day measured after 1 day; format: ADME, organism-based; design: time 1 day, dose 100 mg/kg/day; conditions: in vivo
[5] = AUC (0 to t) in rat at 100 mg/kg/day measured after 10 days; format: ADME, organism-based; design: time 10 day, dose 100 mg/kg/day; conditions: in vivo
[6] = Cmax in rat at 100 mg/kg/day measured after 1 day; format: ADME, organism-based; design: dose 100 mg/kg/day, time 1 day; conditions: in vivo
[7] = biological target: T3, Extracellular calcium-sensing receptor (Homo sapiens, UniProt P41180); assay: Antagonist activity at human CaSR in human HEK293 cells measured after 5 mins by FLIPR assay; format: functional, cell-based
T3 sequence (P41180 whole entry): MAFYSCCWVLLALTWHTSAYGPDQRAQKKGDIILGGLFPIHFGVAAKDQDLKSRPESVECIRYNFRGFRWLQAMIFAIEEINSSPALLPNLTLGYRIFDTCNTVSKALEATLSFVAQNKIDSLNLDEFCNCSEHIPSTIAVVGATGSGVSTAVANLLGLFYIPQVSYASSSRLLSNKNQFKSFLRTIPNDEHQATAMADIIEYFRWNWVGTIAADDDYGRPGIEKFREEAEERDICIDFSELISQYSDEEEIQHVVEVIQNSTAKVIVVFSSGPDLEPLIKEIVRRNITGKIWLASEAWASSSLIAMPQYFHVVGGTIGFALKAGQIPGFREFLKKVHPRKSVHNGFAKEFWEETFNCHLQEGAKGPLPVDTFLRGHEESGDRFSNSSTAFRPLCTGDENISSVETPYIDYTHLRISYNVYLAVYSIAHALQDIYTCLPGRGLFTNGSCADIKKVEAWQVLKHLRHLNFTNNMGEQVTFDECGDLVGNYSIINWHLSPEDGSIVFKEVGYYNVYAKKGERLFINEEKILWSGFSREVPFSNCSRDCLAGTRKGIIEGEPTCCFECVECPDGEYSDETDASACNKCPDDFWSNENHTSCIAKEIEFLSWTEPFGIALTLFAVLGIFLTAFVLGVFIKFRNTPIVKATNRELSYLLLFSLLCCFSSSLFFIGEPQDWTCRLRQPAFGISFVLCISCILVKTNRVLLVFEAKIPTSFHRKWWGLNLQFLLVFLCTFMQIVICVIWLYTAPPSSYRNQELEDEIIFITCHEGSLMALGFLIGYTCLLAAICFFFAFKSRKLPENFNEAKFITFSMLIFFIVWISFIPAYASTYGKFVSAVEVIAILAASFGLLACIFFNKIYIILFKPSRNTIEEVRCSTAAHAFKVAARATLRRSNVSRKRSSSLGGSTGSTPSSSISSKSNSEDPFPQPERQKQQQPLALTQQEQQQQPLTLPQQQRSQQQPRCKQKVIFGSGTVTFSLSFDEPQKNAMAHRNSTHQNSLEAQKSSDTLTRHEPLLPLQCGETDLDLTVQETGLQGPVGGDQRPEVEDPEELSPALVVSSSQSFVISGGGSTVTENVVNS

[8] = Cmax in mouse at 300 mg/kg/day, po measured after 1 day; format: ADME, organism-based; design: route oral, dose 300 mg/kg/day, time 1 day; conditions: in vivo
[9] = AUC (0 to t) in mouse at 300 mg/kg/day, po measured after 10 days; format: ADME, organism-based; design: time 10 day, dose 300 mg/kg/day; conditions: in vivo
[10] = AUC (0 to t) in rat at 300 mg/kg/day measured after 1 day; format: ADME, organism-based; design: dose 300 mg/kg/day, time 1 day; conditions: in vivo
[11] = Cmax in mouse at 1000 mg/kg/day, po measured after 1 day; format: ADME, organism-based; design: route oral, dose 1000 mg/kg/day, time 1 day; conditions: in vivo
[12] = Cmax in mouse at 2000 mg/kg/day, po measured after 10 days; format: ADME, organism-based; design: route oral, time 10 day, dose 2000 mg/kg/day; conditions: in vivo
[13] = AUC (0 to t) in mouse at 2000 mg/kg/day, po measured after 1 day; format: ADME, organism-based; design: time 1 day, dose 2000 mg/kg/day; conditions: in vivo
[14] = biological target: CYP3A4 (Homo sapiens, UniProt P08684); assay: Induction of CYP3A4 in human hepatocytes; format: ADME, cell-based, Liver
CYP3A4, sequence (P08684 whole entry): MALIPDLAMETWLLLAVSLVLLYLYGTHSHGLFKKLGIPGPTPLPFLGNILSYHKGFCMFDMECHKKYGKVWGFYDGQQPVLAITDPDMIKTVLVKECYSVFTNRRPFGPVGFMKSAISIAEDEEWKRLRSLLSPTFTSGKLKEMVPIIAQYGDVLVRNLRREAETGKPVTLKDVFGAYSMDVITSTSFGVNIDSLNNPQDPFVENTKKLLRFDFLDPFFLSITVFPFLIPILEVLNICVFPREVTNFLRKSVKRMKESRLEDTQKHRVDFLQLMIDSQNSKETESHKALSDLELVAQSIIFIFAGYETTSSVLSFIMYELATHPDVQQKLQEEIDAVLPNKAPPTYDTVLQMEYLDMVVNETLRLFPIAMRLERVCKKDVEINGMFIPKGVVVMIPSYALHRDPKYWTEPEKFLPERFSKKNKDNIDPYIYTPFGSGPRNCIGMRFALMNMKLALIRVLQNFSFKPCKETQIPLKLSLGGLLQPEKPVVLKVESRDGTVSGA

[15] = Cmax in mouse at 1000 mg/kg/day, po measured after 10 days; format: ADME, organism-based; design: route oral, dose 1000 mg/kg/day, time 10 day; conditions: in vivo
[16] = Cmax in rat at 300 mg/kg/day measured after 1 day; format: ADME, organism-based; design: dose 300 mg/kg/day, time 1 day; conditions: in vivo
[17] = Cmax in mouse at 300 mg/kg/day, po measured after 10 days; format: ADME, organism-based; design: route oral, time 10 day, dose 300 mg/kg/day; conditions: in vivo
[18] = AUC (0 to t) in rat at 300 mg/kg/day measured after 10 days; format: ADME, organism-based; design: time 10 day, dose 300 mg/kg/day; conditions: in vivo
[19] = Cmax in mouse at 2000 mg/kg/day, po measured after 1 day; format: ADME, organism-based; design: route oral, dose 2000 mg/kg/day, time 1 day; conditions: in vivo
[20] = biological target: T4, Extracellular calcium-sensing receptor (Mus musculus, UniProt Q9QY96); assay: Antagonist activity at mouse CaSR; format: functional
T4 sequence (Q9QY96 whole entry): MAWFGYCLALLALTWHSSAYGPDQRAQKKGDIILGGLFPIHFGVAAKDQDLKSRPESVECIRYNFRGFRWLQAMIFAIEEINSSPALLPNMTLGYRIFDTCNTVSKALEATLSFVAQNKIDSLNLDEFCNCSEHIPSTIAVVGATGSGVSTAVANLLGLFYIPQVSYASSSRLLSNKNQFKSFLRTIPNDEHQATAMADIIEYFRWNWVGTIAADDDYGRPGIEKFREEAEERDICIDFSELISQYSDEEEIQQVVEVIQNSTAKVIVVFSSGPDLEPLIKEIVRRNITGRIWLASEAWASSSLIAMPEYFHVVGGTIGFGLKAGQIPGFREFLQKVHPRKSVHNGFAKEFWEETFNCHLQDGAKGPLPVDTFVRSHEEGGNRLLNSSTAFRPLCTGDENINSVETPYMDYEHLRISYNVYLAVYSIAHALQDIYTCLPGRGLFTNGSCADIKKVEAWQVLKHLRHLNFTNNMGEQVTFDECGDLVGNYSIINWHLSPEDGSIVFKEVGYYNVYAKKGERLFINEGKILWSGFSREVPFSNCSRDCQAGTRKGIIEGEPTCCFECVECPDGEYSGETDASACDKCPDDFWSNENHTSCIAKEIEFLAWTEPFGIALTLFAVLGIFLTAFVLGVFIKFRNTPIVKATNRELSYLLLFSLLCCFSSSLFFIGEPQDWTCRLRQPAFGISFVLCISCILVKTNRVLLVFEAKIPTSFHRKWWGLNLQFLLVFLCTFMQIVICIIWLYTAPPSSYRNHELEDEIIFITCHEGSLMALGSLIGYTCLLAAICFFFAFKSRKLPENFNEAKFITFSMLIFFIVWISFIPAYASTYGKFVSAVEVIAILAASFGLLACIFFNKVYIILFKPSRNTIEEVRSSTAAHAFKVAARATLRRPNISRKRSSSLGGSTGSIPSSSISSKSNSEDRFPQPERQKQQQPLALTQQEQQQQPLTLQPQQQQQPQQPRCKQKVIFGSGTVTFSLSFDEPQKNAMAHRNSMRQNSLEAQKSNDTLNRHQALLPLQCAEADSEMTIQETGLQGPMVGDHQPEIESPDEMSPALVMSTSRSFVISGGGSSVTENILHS

[21] = AUC (0 to t) in mouse at 2000 mg/kg/day, po measured after 10 days; format: ADME, organism-based; design: time 10 day, dose 2000 mg/kg/day; conditions: in vivo
[22] = AUC (0 to t) in mouse at 1000 mg/kg/day, po measured after 1 day; format: ADME, organism-based; design: time 1 day, dose 1000 mg/kg/day; conditions: in vivo
[23] = AUC (0 to t) in mouse at 1000 mg/kg/day, po measured after 10 days; format: ADME, organism-based; design: time 10 day, dose 1000 mg/kg/day; conditions: in vivo
[24] = AUC (0 to t) in mouse at 300 mg/kg/day, po measured after 1 day; format: ADME, organism-based; design: time 1 day, dose 300 mg/kg/day; conditions: in vivo
[25] = Cmax in rat at 300 mg/kg/day measured after 10 days; format: ADME, organism-based; design: time 10 day, dose 300 mg/kg/day; conditions: in vivo

Compound: Cc1ccc(-c2nc(CCc3ccccc3)c(-c3cccc(F)c3O)nc2C)s1
Emax at 24 h, 50 µM [1]: 110%
EC50 [2]: 3.2 µM

Compound: Cc1nc(-c2cccc(F)c2O)n(CCc2ccccc2)c(=O)c1-c1cc(-c2ccccn2)c(C)s1
Cmax [3]: 12000 ng/mL
Emax at 24 h, 50 µM [1]: 9%
EC50 [2]: > 50 µM
AUC(0-t) at 24 h [4]: 29500 ng·h/mL
AUC(0-t) at 240 h [5]: 41100 ng·h/mL
Cmax [6]: 8900 ng/mL

Compound: Cc1nc(-c2cccc(F)c2O)n(CCc2ccccc2)c(=O)c1Cc1ccccc1
Emax at 24 h, 50 µM [1]: 250%
EC50 [2]: 1 µM

Compound: Cc1nc(-c2cccc(F)c2O)n(CCc2ccccc2)c(=O)c1-c1ccc(-c2ccccc2)s1
Emax at 24 h, 50 µM [1]: 60%
EC50 [2]: 8 µM

The remaining lines, values ahead:

Emax at 24 h, 50 µM [1]: 40%
EC50 [2]: > 10 µM
Compound: Cc1ncc(-c2c(C)nc(-c3cccc(F)c3O)n(CCc3ccccc3)c2=O)s1

Emax at 24 h, 50 µM [1]: 31%
EC50 [2]: 13 µM
IC50 [7]: > 10 µM
Compound: Cc1nc(-c2cccc(F)c2O)n(CCc2ccccc2)c(=O)c1-c1ccc(CO)s1

Cmax [8]: 980 ng/mL
AUC(0-t) at 240 h [9]: 1260 ng·h/mL
Emax at 24 h, 50 µM [1]: 122%
EC50 [2]: 2.5 µM
AUC(0-t) at 24 h [10]: 2500 ng·h/mL
Cmax [11]: 2960 ng/mL
Cmax [12]: 480 ng/mL
AUC(0-t) at 24 h [13]: 15100 ng·h/mL
Emax [14]: 10%
Cmax [15]: 680 ng/mL
Cmax [16]: 330 ng/mL
Cmax [17]: 820 ng/mL
AUC(0-t) at 240 h [18]: 1800 ng·h/mL
Cmax [19]: 3600 ng/mL
IC50 [20]: 0.051 µM
AUC(0-t) at 240 h [21]: 1580 ng·h/mL
AUC(0-t) at 24 h [22]: 10800 ng·h/mL
AUC(0-t) at 240 h [23]: 2850 ng·h/mL
AUC(0-t) at 24 h [24]: 2880 ng·h/mL
Cmax [25]: 360 ng/mL
Compound: Cc1ccc(-c2c(C)nc(-c3cccc(F)c3O)n(CCc3ccccc3)c2=O)s1

Emax at 24 h, 50 µM [1]: 36%
EC50 [2]: 5 µM
Compound: Cc1nc(-c2cccc(F)c2O)n(CCc2ccccc2)c(=O)c1-c1ccc(-c2ccccn2)s1
